In patent US8633200B2, “Inhibitors of human immunodeficiency virus replication” (priority 2010, dated 2014):
Structures can show the parent of a compound that is named as a salt. Where two headings read alike, the source gives them in different places.

System: recombinant NL-Rluc virus (NL4-3 with Renilla Luciferase gene) in MT-2 cells
Test: Inhibition of HIV replication (NL-Rluc luciferase reporter virus, MT-2 cells)
Format: cell-based, human immunodeficiency virus (HIV)
Details: NL43, 120 h

| Structure (SMILES) | EC50 (read-out: Activity) [µM] | EC50 (read-out: EC50 μM) [µM] |
| --- | --- | --- |
| Cc1ccc(-c2c([C@H](OC(C)(C)C)C(=O)O)c(C)nc3cc(-c4ccc5c(c4)CCCC5)nn23)c(Cl)c1 [Example 156, (2S)-2-(tert-Butoxy)-2-(7-(2-chloro-4-methylphenyl)-5-methyl-2-(5,6,7,8-tetrahydronaphthalen-2-yl)pyrazolo[1,5-a]pyrimidin-6-yl)acetic acid] | > 1 |  |
| Cc1ccc(-c2c([C@H](OC(C)(C)C)C(=O)O)c(C)nc3cc(-c4ccc5c(c4)CCCC5)nn23)cc1 [Example 153, (S)-2-(tert-Butoxy)-2-(5-methyl-2-(5,6,7,8-tetrahydronaphthalen-2-yl)-7-(p-tolyl)pyrazolo[1,5-a]pyrimidin-6-yl)acetic acid] | 0.1 to 1 |  |
| Cc1nc2cc(-c3ccccc3)nn2c(-c2ccc(Cl)cc2)c1C(OC(C)(C)C)C(=O)O (stereo not drawn) [Example 4] | > 1 |  |
| Cc1nc2cc(-c3ccccc3)nn2c(-c2ccc(F)c(F)c2)c1C(OC(C)(C)C)C(=O)O (stereo not drawn) [Example 83] | > 1 |  |
| COc1ccc(-c2cc3nc(C)c(C(OC(C)(C)C)C(=O)O)c(-c4cc(F)c5c(c4C)CCCO5)n3n2)cc1 (stereo not drawn) [Example 92, 2-tert-Butoxy-2-(7-(8-fluoro-5-methylchroman-6-yl)-2-(4-methoxyphenyl)-5-methylpyrazolo[1,5-a]pyrimidin-6-yl)acetic acid, TFA salt] | 0.1 to 1 |  |
| Cc1nc2cc(-c3ccccc3)nn2c(-c2cccc(Cl)c2)c1C(OC(C)(C)C)C(=O)O (stereo not drawn) [Example 16] | > 1 |  |
| COc1cccc(-c2cc3nc(C)c(C(OC(C)(C)C)C(=O)O)c(-c4cc(F)c5c(c4C)CCCO5)n3n2)c1 (stereo not drawn) [Example 99, 2-tert-Butoxy-2-(7-(8-fluoro-5-methylchroman-6-yl)-2-(3-methoxyphenyl)-5-methylpyrazolo[1,5-a]pyrimidin-6-yl)acetic acid] | 0.1 to 1 | 0.35 |
| Cc1nc2c(-c3cccc(Cl)c3)cnn2c(-c2cc(F)c3c(c2C)CCCO3)c1C(OC(C)(C)C)C(=O)O (stereo not drawn) [Example 132] | 0.1 to 1 |  |
| Cc1nc2cc(-c3cccc(OCc4cccc(Cl)c4)c3)nn2c(-c2cc(F)c3c(c2C)CCCO3)c1C(OC(C)(C)C)C(=O)O (stereo not drawn) [Example 104, 2-tert-Butoxy-2-(2-(3-(3-chlorobenzyloxy)phenyl)-7-(8-fluoro-5-methylchroman-6-yl)-5-methylpyrazolo[1,5-a]pyrimidin-6-yl)acetic acid, TFA salt] | < 0.1 |  |
| COc1ccc(-c2cccc(-c3cc4nc(C)c([C@H](OC(C)(C)C)C(=O)O)c(-c5cc(F)c6c(c5C)CCCO6)n4n3)c2)cn1 [Example 169, (2S)-2-(tert-Butoxy)-2-(7-(8-fluoro-5-methylchroman-6-yl)-2-(3-(6-methoxypyridin-3-yl)phenyl)-5-methylpyrazolo[1,5-a]pyrimidin-6-yl)acetic acid] | < 0.1 |  |
| Cc1nc2cc(-c3ccc4c(c3)CCCC4)nn2c(-c2ccc(F)cc2)c1[C@H](OC(C)(C)C)C(=O)O [Example 152, (S)-2-(tert-Butoxy)-2-(7-(4-fluorophenyl)-5-methyl-2-(5,6,7,8-tetrahydronaphthalen-2-yl)pyrazolo[1,5-a]pyrimidin-6-yl)acetic acid] | > 1 |  |
| Cc1nc2cc(-c3ccc(OCc4ccccc4)nc3)nn2c(-c2cc(F)c3c(c2C)CCCO3)c1C(OC(C)(C)C)C(=O)O (stereo not drawn) [Example 108, 2-(2-(6-(Benzyloxy)pyridin-3-yl)-7-(8-fluoro-5-methylchroman-6-yl)-5-methylpyrazolo[1,5-a]pyrimidin-6-yl)-2-tert-butoxyacetic acid, TFA salt] | < 0.1 |  |
| Cc1nc2cc(-c3ccccc3)nn2c(-c2ccc3c4c(ccnc24)CCO3)c1C(OC(C)(C)C)C(=O)O (stereo not drawn) [Example 37] | > 1 |  |
| Cc1nc2cc(-c3ccccc3)nn2c(-c2cccc3cn[nH]c23)c1C(OC(C)(C)C)C(=O)O (stereo not drawn) [Example 80] | > 1 |  |
| COc1ccc(COc2cccc(-c3cc4nc(C)c(C(OC(C)(C)C)C(=O)O)c(-c5cc(F)c6c(c5C)CCCO6)n4n3)c2)cc1 (stereo not drawn) [Example 103, 2-tert-Butoxy-2-(7-(8-fluoro-5-methylchroman-6-yl)-2-(3-(4-methoxybenzyloxy)phenyl)-5-methylpyrazolo[1,5-a]pyrimidin-6-yl)acetic acid, TFA salt] | < 0.1 |  |
| Cc1nc2cc(-c3cccc(OCc4ccc(Cl)cc4)c3)nn2c(-c2cc(F)c3c(c2C)CCCO3)c1C(OC(C)(C)C)C(=O)O (stereo not drawn) [Example 106, 2-tert-Butoxy-2-(2-(3-(4-chlorobenzyloxy)phenyl)-7-(8-fluoro-5-methylchroman-6-yl)-5-methylpyrazolo[1,5-a]pyrimidin-6-yl)acetic acid, TFA salt] | < 0.1 | 0.04 |
| Cc1nc2cc(-c3ccc4c(c3)CCCC4)nn2c(-c2ccc(Cl)cc2)c1[C@H](OC(C)(C)C)C(=O)O [Example 155, (S)-2-(tert-Butoxy)-2-(7-(4-chlorophenyl)-5-methyl-2-(5,6,7,8-tetrahydronaphthalen-2-yl)pyrazolo[1,5-a]pyrimidin-6-yl)acetic acid] | 0.1 to 1 |  |
| COc1ccncc1-c1cccc(-c2nn3c(-c4cc(F)c5c(c4C)CCCO5)c([C@H](OC(C)(C)C)C(=O)O)c(C)nc3c2C)c1 [Example 160, (2S)-2-(tert-Butoxy)-2-(7-(8-fluoro-5-methylchroman-6-yl)-2-(3-(4-methoxypyridin-3-yl)phenyl)-3,5-dimethylpyrazolo[1,5-a]pyrimidin-6-yl)acetic acid] | < 0.1 | 0.01 |
| Cc1nc2cc(-c3ccccc3)nn2c(-c2ccc3cc[nH]c3c2)c1C(OC(C)(C)C)C(=O)O (stereo not drawn) [Example 51] | > 1 |  |
| Cc1ccc(-c2c(C(OC(C)(C)C)C(=O)O)c(C)nc3cc(-c4ccccc4)nn23)cc1C (stereo not drawn) [Example 1, 2-tert-Butoxy-2-(7-(3,4-dimethylphenyl)-5-methyl-2-phenylpyrazolo[1,5-a]pyrimidin-6-yl)acetic acid, TFA salt] | > 1 |  |

| Structure (SMILES) | EC50 (read-out: Activity) [µM] | EC50 (read-out: EC50 μM) [µM] |
| --- | --- | --- |
| Cc1nc2cc(-c3ccc(OCc4ccccc4)cc3)nn2c(-c2cc(F)c3c(c2C)CCCO3)c1C(OC(C)(C)C)C(=O)O (stereo not drawn) [Example 95, 2-(2-(4-(Benzyloxy)phenyl)-7-(8-fluoro-5-methylchroman-6-yl)-5-methylpyrazolo[1,5-a]pyrimidin-6-yl)-2-tert-butoxyacetic acid, TFA salt] | < 0.1 |  |
| COc1ccc(-c2c(C(OC(C)(C)C)C(=O)O)c(C)nc3cc(-c4ccccc4)nn23)cc1F (stereo not drawn) [Example 33] | > 1 |  |
| CSc1ccc(-c2c(C(OC(C)(C)C)C(=O)O)c(C)nc3cc(-c4ccccc4)nn23)cc1 (stereo not drawn) [Example 58] | > 1 | 3.1 |
| COc1ccc(-c2c(C(OC(C)(C)C)C(=O)O)c(C)nc3cc(-c4ccccc4)nn23)cc1C (stereo not drawn) [Example 88] | > 1 |  |
| Cc1nc2cc(-c3ccccc3)nn2c(C)c1C(OC(C)(C)C)C(=O)O (stereo not drawn) [Example 43, 2-tert-Butoxy-2-(5,7-dimethyl-2-phenylpyrazolo[1,5-a]pyrimidin-6-yl)acetic acid, TFA salt] | > 1 | 40 |
| COc1cccc(-c2cccc(-c3cc4nc(C)c([C@H](OC(C)(C)C)C(=O)O)c(-c5cc(F)c6c(c5C)CCCO6)n4n3)c2)c1 [Example 129, (2S)-2-(tert-Butoxy)-2-(7-(8-fluoro-5-methylchroman-6-yl)-2-(3′-methoxy-[1,1′-biphenyl]-3-yl)-5-methylpyrazolo[1,5-a]pyrimidin-6-yl)acetic acid, TFA salt] | < 0.1 |  |
| Cc1nc2cc(-c3ccccc3)nn2c(-c2ccc3c(c2)OCCO3)c1C(OC(C)(C)C)C(=O)O (stereo not drawn) [Example 19] | > 1 |  |
| Cc1nc2cc(-c3ccc(Cl)cc3)nn2c(-c2cc(F)c3c(c2C)CCCO3)c1C(OC(C)(C)C)C(=O)O (stereo not drawn) [Example 96, 2-tert-Butoxy-2-(2-(4-chlorophenyl)-7-(8-fluoro-5-methylchroman-6-yl)-5-methylpyrazolo[1,5-a]pyrimidin-6-yl)acetic acid, TFA salt] | 0.1 to 1 |  |
| Cc1cc(F)ccc1-c1c(C(OC(C)(C)C)C(=O)O)c(C)nc2cc(-c3ccccc3)nn12 (stereo not drawn) [Example 60] | > 1 |  |
| Cc1nc2cc(-c3ccccc3)nn2c(-c2ccc3occc3c2)c1C(OC(C)(C)C)C(=O)O (stereo not drawn) [Example 28] | > 1 |  |
| Cc1nc2cc(-c3ccccc3)nn2c(-c2cnc3[nH]ccc3c2)c1C(OC(C)(C)C)C(=O)O (stereo not drawn) [Example 78] | > 1 |  |
| Cc1nc2cc(-c3ccccc3)nn2c(-c2ccc(C(C)(C)C)cc2)c1C(OC(C)(C)C)C(=O)O (stereo not drawn) [Example 66] | > 1 |  |
| Cc1nc2cc(-c3ccc4c(c3)CCCC4)nn2c(-c2ccc3c4c(ccnc24)CCO3)c1[C@H](OC(C)(C)C)C(=O)O [Example 154, (2S)-2-(tert-Butoxy)-2-(7-(2,3-dihydropyrano[4,3,2-de]quinolin-7-yl)-5-methyl-2-(5,6,7,8-tetrahydronaphthalen-2-yl)pyrazolo[1,5-a]pyrimidin-6-yl)acetic acid] | > 1 |  |
| Cc1ccc(-c2c(C(OC(C)(C)C)C(=O)O)c(C)nc3cc(-c4ccccc4)nn23)cc1F (stereo not drawn) [Example 61] | > 1 |  |
| Cc1nc2cc(-c3ccccc3)nn2c(-c2cccc3[nH]ccc23)c1C(OC(C)(C)C)C(=O)O (stereo not drawn) [Example 72] | > 1 |  |
| Cc1nc2cc(-c3ccccc3)nn2c(-c2cc3ccccc3o2)c1C(OC(C)(C)C)C(=O)O (stereo not drawn) [Example 64] | > 1 |  |
| Cc1nc2cc(-c3ccccc3)nn2c(-c2ccc(N(C)C)cc2)c1C(OC(C)(C)C)C(=O)O (stereo not drawn) [Example 75] | > 1 |  |
| Cc1nc2cc(-c3cccc(-c4cccc(F)c4)c3)nn2c(-c2cc(F)c3c(c2C)CCCO3)c1[C@H](OC(C)(C)C)C(=O)O [Example 128, (2S)-2-(tert-Butoxy)-2-(7-(8-fluoro-5-methylchroman-6-yl)-2-(3′-fluoro-[1,1′-biphenyl]-3-yl)-5-methylpyrazolo[1,5-a]pyrimidin-6-yl)acetic acid, TFA salt] | < 0.1 |  |
| Cc1nc2c(-c3cccc(-c4ccncc4)c3)cnn2c(-c2cc(F)c3c(c2C)CCCO3)c1C(OC(C)(C)C)C(=O)O (stereo not drawn) [Example 135, 2-(tert-Butoxy)-2-(7-(8-fluoro-5-methylchroman-6-yl)-5-methyl-3-(3-(pyridin-4-yl)phenyl)pyrazolo[1,5-a]pyrimidin-6-yl)acetic acid] | 0.1 to 1 |  |
| Cc1nc2cc(-c3ccccc3)nn2c(-c2ccc(Cl)cc2Cl)c1C(OC(C)(C)C)C(=O)O (stereo not drawn) [Example 81] | > 1 |  |
